Test results taken from patent US20050209157A1, “Short bioactive peptides and methods for their use” (priority 2001, published 2005).
In brackets after ≈: the same amount, converted by molar mass. Read-outs that look alike come from different tables or passages of the source. No end group written: not given here.

What was measured:
Escherichia coli 25922 = test: microbe, parasite or virus in culture; details: for MBC: Escherichia coli, 25922, read-out: MBC, Without peptide
Description: Synergy between peptide Shiva-10 (SEQ ID NO:4) and various antimicrobial agents was investigated against Escherichia coli 25922.
Synergy between tetracycline and various peptides was investigated against Escherichia coli 25922 MBC. […] When combined with the peptides, the concentration of tetracycline was held at 1.5 ppm.

[1] = test system: Escherichia coli ATCC 25922; test: Antimicrobial assay I, modified protocol (tryptic soy broth), MBC; details: minimum bactericidal concentration, Table 4
fungal = test: Presently preferred antifungal peptides, selected from the MIC/MBC data; assay type: cell-based; details: X = preferred
Description: The peptide's “length” is the number of amino acid residues in the sequence.

[2] = test system: Pseudomonas aeruginosa ATCC 27853; test: Antimicrobial assay I, modified protocol (tryptic soy broth), MBC; details: minimum bactericidal concentration, Table 4
[3] = test system: Candida albicans ATCC 10231; test: Antimicrobial assay I, modified protocol (tryptic soy broth), MFC; details: minimum fungicidal concentration, Table 4
[4] = test system: Stapholococcus aureus ATCC 25923; test: Antimicrobial assay I, modified protocol (tryptic soy broth), MBC; details: minimum bactericidal concentration, Table 4
cancer cell lines = test: Anti-cancer assays, MTT, summary over the cancer cell lines; assay type: cell-based; details: X = preferred
[5] = test system: MCF7 line of breast cancer cells
in vitro [6] = details: human, WI38 normal lung fibroblast cells, WI-38 LD50, Table 26, valine substitution
in vitro [7] = assay type: cell-based, human; details: human, human red blood cells
[8] = test system: human red blood cells (RBC); test: in vitro; assay type: cell-based; details: Table 27
[9] = test system: Pseudomonas aeruginosa ATCC 9027; test: Antimicrobial assay I, MIC by OD measurement; assay type: cell-based
WI38 = details: Table 27
[10] = pH 7, Table 26, valine substitution, read-out: Hemolysis RBC LD50
[11] = pH 7, Table 27, read-out: Hemolysis (LD50)

Compound | MBC E. coli A.25922 [1] | Anti-fungal (preferred peptide) (fungal) | MBC P. aerug A.27853 [2] | MFC Candida A.10231 [3] | MBC S. aur A.25923 [4] | Anti-cancer (preferred peptide) (cancer cell lines) | CC50 at 24 h (in vitro [6]) | HC50 at 1 h (in vitro [7]; [10]) | also measured
NCC[C@H](O)C(=O)N[C@@H]1C[C@H](N)[C@@H](O[C@H]2O[C@H](CN)[C@@H](O)[C@H](O)[C@H]2O)[C@H](O)[C@H]1O[C@H]1O[C@H](CO)[C@@H](O)[C@H](N)[C@H]1O [Amikacin] |  |  |  |  |  |  |  |  | MBC (Escherichia coli 25922): 150 µg/mL; MBC, With peptide (Escherichia coli 25922; with 5 μg/mL peptide Shiva-10): 50 µg/mL
FALAKLAKKAKAKLKKALKAL-NH2 [compound 26] | >80 µg/mL | X (Preferred antifungal peptides can be selected as having MIC or MBC values of less than or equal to about 25 μg/ml) | >40 µg/mL | >50 µg/mL | >40 µg/mL | X (Preferred anticancer peptides can be selected as having LD50 values of less than or equal to about 25 μg/ml) |  |  | 
NC[C@@H]1O[C@H](O[C@H]2[C@@H](O)[C@H](O[C@@H]3[C@@H](O)[C@H](N)C[C@H](N)[C@H]3O[C@H]3O[C@H](CN)[C@@H](O)[C@H](O)[C@H]3N)O[C@@H]2CO)[C@H](N)[C@@H](O)[C@@H]1O [Neomycin] |  |  |  |  |  |  |  |  | MBC, Without peptide (Escherichia coli 25922; agent alone): 100 µg/mL; MBC, With peptide (Escherichia coli 25922; with 5 μg/mL peptide Shiva-10): 5 µg/mL
CC/C(=C(\c1ccccc1)c1ccc(OCCN(C)C)cc1)c1ccccc1 [Tamoxifen] |  |  |  |  |  |  |  |  | MCF7 LD50 ([5]; agent alone): 20 µg/mL; Active agent LD50 on MCF7 cells: Total conc. ([5]; peptide plus tamoxifen concentration at LD50): 20 µg/mL; Active agent LD50 on MCF7 cells: Tamox. conc. ([5]; tamoxifen concentration at LD50 (peptide with tamoxifen; tamoxifen alone in its own line)): 20 µg/mL
C[C@H]1c2cccc(O)c2C(=O)C2=C(O)[C@]3(O)C(=O)C(C(N)=O)=C(O)[C@@H](N(C)C)[C@@H]3[C@@H](O)[C@@H]21 [Doxycycline] |  |  |  |  |  |  |  |  | MBC (Escherichia coli 25922): 5 µg/mL; MBC, With peptide (Escherichia coli 25922; with 15 μg/mL peptide Shiva-10): 1 µg/mL
FALALKKALKALKKAL-NH2 [compound 34] | 15 µg/mL | X (Preferred antifungal peptides can be selected as having MIC or MBC values of less than or equal to about 25 μg/ml) | 15 µg/mL | >40 µg/mL | 40 µg/mL | X (Preferred anticancer peptides can be selected as having LD50 values of less than or equal to about 25 μg/ml) |  |  | 
FAKLLAKALKKLL-NH2 [compound 55] | 4 µg/mL | X (Preferred antifungal peptides can be selected as having MIC or MBC values of less than or equal to about 25 μg/ml) | 10 µg/mL | 25 µg/mL | 4 µg/mL | X (Preferred anticancer peptides can be selected as having LD50 values of less than or equal to about 25 μg/ml) | 32 µg/mL | 20 µg/mL | 
FAKLLAKLAKKLL-NH2 [compound 43] | 8 µg/mL | X (Preferred antifungal peptides can be selected as having MIC or MBC values of less than or equal to about 25 μg/ml) | 15 µg/mL | 15 µg/mL | 4 µg/mL | X (Preferred anticancer peptides can be selected as having LD50 values of less than or equal to about 25 μg/ml) | 25 µg/mL | 20 µg/mL | Hemolysis (LD50) [8]: 20 µg/mL; P. aerug (MIC) [9]: 100 µg/mL; WI38 LD50 (WI38): 25 µg/mL
FALALKALKKLKKALKKAL-NH2 [FLAK 06AM (P27; SEQ ID NO: 12)] |  |  |  |  |  |  |  |  | MBC, Without tetracycline (Escherichia coli 25922; peptide alone): 75 µg/mL; MBC, With tetracycline (Escherichia coli 25922; tetracycline held at […]): 25 µg/mL
FAKLLAKLAKKVL-NH2 [compound 124] | 10 µg/mL | X (Preferred antifungal peptides can be selected as having MIC or MBC values of less than or equal to about 25 μg/ml) | 40 µg/mL | 15 µg/mL | 8 µg/mL | X (Preferred anticancer peptides can be selected as having LD50 values of less than or equal to about 25 μg/ml) | 21 µg/mL | 55 µg/mL | HC50 at 1 h (in vitro [7]; [11]): 300 µg/mL; P. aerug (MIC) [9]: 100 µg/mL; WI38 LD50 (WI38): 21 µg/mL
VAKLLAKLAKKLL-NH2 [compound 48] | 8 µg/mL | X (Preferred antifungal peptides can be selected as having MIC or MBC values of less than or equal to about 25 μg/ml) | 25 µg/mL | 10 µg/mL | 4 µg/mL | X (Preferred anticancer peptides can be selected as having LD50 values of less than or equal to about 25 μg/ml) | 160 µg/mL | 130 µg/mL | HC50 at 1 h (in vitro [7]; [11]): 200 µg/mL; P. aerug (MIC) [9]: 5 µg/mL; WI38 LD50 (WI38): 160 µg/mL
FALALKALKKALKKLKKALKKAL-OH [compound 1] | 25 µg/mL |  | 30 µg/mL | >50 µg/mL | 25 µg/mL | X (Preferred anticancer peptides can be selected as having LD50 values of less than or equal to about 25 μg/ml) | 27 µg/mL | 20 µg/mL | 
CC(C)C[C@H](NC(=O)[C@H](C)NC(=O)[C@H](CC(C)C)NC(=O)[C@H](C)NC(=O)[C@H](CC(C)C)NC(=O)[C@H](CCCCN)NC(=O)[C@H](C)NC(=O)[C@H](CC(C)C)NC(=O)[C@H](CCCCN)NC(=O)[C@H](CCCCN)NC(=O)[C@H](C)NC(=O)[C@H](CC(C)C)NC(=O)[C@H](CCCCN)NC(=O)[C@H](C)NC(=O)[C@H](CC(C)C)NC(=O)[C@H](CCCCN)NC(=O)[C@H](CCCCN)NC(=O)[C@H](C)NC(=O)[C@@H](N)Cc1ccccc1)C(N)=O [compound 36] | 30 µg/mL (≈ 14.7 µM) |  | 15 µg/mL (≈ 7.36 µM) | >40 µg/mL | 10 µg/mL (≈ 4.91 µM) | X (Preferred anticancer peptides can be selected as having LD50 values of less than or equal to about 25 μg/ml) | 19 µg/mL (≈ 9.32 µM) | 12 µg/mL | 
FALALKALKKLKKALKKAL-OH [27B] | 40 µg/mL | X (Preferred antifungal peptides can be selected as having MIC or MBC values of less than or equal to about 25 μg/ml) | 10 µg/mL | >40 µg/mL | >40 µg/mL | X (Preferred anticancer peptides can be selected as having LD50 values of less than or equal to about 25 μg/ml) |  |  | 
FAKALAKLAKKLL-NH2 [compound 92] | 40 µg/mL | X (Preferred antifungal peptides can be selected as having MIC or MBC values of less than or equal to about 25 μg/ml) | 25 µg/mL | 25 µg/mL | 15 µg/mL | X (Preferred anticancer peptides can be selected as having LD50 values of less than or equal to about 25 μg/ml) |  |  | 
FAKKLAKKLKKLAKKLAKKWKL-NH2 [compound 70] | 40 µg/mL |  | 30 µg/mL | >50 µg/mL | 40 µg/mL | X (Preferred anticancer peptides can be selected as having LD50 values of less than or equal to about 25 μg/ml) |  |  | 
